In patent publication US8586530B2, “Modulation of inhibition of ferrochelatase by N-methyl protoporphyrin” (University of South Florida, priority 2006, dated 2013):
Changes are numbered by the printed parent chain.

What was measured:
ferrochelatase = settings: background statement, potent inhibitor of ferrochelatase; cited from earlier work
[1] = biological target: T1, ferrochelatase variant P255R (Mus musculus, UniProt P22315, P308R); experiment: Fluorescence titration of NMPP binding (quenching of intrinsic protein fluorescence); parameters: species or system murine; settings: 10 mM Tris-acetate pH 8, 0.05% Tween-80, read-out: dissociation constant (Kd) of NMPP
T1 construct: In wild-type, murine, mature ferrochelatase, five tryptophan residues; penta-histidine tag (N); made in house; host or cells: E. coli BL21(DE3)
T1 sequence (P22315 54-422 P308R): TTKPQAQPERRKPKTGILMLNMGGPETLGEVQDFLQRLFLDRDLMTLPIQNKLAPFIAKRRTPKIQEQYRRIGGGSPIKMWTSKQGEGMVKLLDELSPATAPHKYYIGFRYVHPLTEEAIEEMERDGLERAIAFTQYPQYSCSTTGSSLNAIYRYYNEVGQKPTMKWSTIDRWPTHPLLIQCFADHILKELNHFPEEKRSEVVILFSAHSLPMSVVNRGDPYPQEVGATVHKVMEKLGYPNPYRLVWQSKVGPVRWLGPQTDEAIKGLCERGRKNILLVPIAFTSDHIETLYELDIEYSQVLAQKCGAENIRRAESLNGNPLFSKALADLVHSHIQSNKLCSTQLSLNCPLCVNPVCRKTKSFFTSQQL
Procedure: (§1) Aliquots of NMPP were added to a solution of enzyme in 10 mM Tris-acetate, pH 8 containing 0.05% Tween-80 and incubated on ice for 1 hr. The intrinsic protein fluorescence was monitored at 331 nm (λex=283 nm). The Kd value for NMPP was determined by fitting the data to Equation 3. The enzymes used in each set were: A. wild-type ferrochelatase (40 nM); B. P255R (250 nM); C. P255G (120 nM).
(§2) The equilibrium constant for NMPP binding to ferrochelatase could be determined from the change in intrinsic protein fluorescence upon ligand addition. […]
(§3) Fluorescence Titration Measurements. Equilibrium fluorescence measurements were made using a Shimadzu RF-5301PC fluorimeter at 23° C. with excitation and emission wavelengths at 283 nm and 331 nm, respectively. The decrease in protein fluorescence, due to NMPP binding, was monitored. […] In a typical titration experiment, aliquots of the NMPP stock were added to the protein solution and, upon incubation on ice for 1 h, the quenching in fluorescence was monitored as described above. […] The observed fluorescence intensity was plotted against NMPP concentration and the dissociation constant of NMPP for ferrochelatase was determined using the least-squares fit of each data set to equation 3 by nonlinear regression: […]

[2] = biological target: T2, ferrochelatase variant P255G (Mus musculus, UniProt P22315, P308G); experiment: as above; parameters: species or system murine; settings: 10 mM Tris-acetate pH 8, 0.05% Tween-80, read-out: dissociation constant (Kd) of NMPP
T2 construct: In wild-type, murine, mature ferrochelatase, five tryptophan residues; penta-histidine tag (N); made in house; host or cells: E. coli BL21(DE3)
T2 sequence (P22315 54-422 P308G): T1 sequence (P22315 54-422 P308R) with R255G
Procedure: as §1, §2, §3

In the case of N-methyl protoporphyrin [NMPP], the Ki (ferrochelatase) is listed as roughly 10 nM, the Kd [1] is listed as 160 ± 70 nM and the Kd [2] is listed as 300 ± 100 nM.
